The source of these data is patent US6943189B2, “Combination therapy employing ileal bile acid transport inhibiting benzothiepines and HMG CO-A reductase inhibitors” (G.D. Searle & Co., priority 1994, dated 2005).

A word on the IC50: it is the point on the concentration scale where inhibition reaches its midpoint. A word on the inhibition: it is how much of the control response was suppressed.

The first assay deals with T1, human IBAT (Homo sapiens, UniProt Q12908).
T1 construct: expressed in transfected cells; host or cells: Baby hamster kidney (BHK) cells, clone H14
T1 sequence (Q12908 1-348): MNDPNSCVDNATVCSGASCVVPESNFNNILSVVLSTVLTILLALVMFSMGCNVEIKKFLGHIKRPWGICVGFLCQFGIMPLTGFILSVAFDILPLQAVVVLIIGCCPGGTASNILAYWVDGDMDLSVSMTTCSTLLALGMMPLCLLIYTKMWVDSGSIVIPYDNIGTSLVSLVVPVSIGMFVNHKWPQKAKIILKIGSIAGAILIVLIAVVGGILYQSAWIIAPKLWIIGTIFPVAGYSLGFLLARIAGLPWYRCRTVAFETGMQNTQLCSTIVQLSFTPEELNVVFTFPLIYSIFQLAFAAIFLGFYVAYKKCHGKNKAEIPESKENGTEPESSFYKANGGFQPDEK
Put plainly: In vitro assay of compounds that inhibit IBAT-mediated uptake of [14C]-taurocholate (TC) in H14 cells. Type of assay: cell-based. As to conditions: [14C]-taurocholate uptake, read-out: Human TC IC50. As for the experimental part: In Vitro Assay of Compounds That Inhibit IBAT-Mediated Uptake of [^14C]-Taurocholate (TC) in H14 Cells
Baby hamster kidney cells (BHK) transfected with the cDNA of human IBAT (H14 cells) are seeded at 60,000 cells/well in 96 well Top-Count tissue culture plates for assays run within in 24 hours of seeding, 30,000 cells/well for assays run within 48 hours, and 10,000 cells/well for assays run within 72 hours.
On the day of assay, the cell monolayer is gently washed once with […] assay buffer (Dulbecco's Modified Eaglets medium with 4.5 g/L glucose+0.2% (w/v) fatty acid free bovine serum albumin- (FAF)BSA). To each well 50 ml of a two-fold concentrate of test compound in assay buffer is added along with 50 ml of […] [^14C]-taurocholate in assay buffer (final concentration of […] [^14C]-taurocholate). The cell culture plates are incubated 2 hours at 37° C. prior to gently washing each well twice with […] 4° C. Dulbecco's phosphate-buffered saline (PBS) containing 0.2% (w/v) (FAF)BSA. The wells are then gently washed once with […] 4° C. PBS without (FAF)BSA. To each 200 ml of liquid scintillation counting fluid is added, the plates are heat sealed and shaken for 30 minutes at room temperature prior to measuring the amount of radioactivity in each well on a Packard Top-Count instrument.
`CCCC[C@]1(CC)CS(=O)(=O)c2cc(OCCOCCOCCOc3ccc4c(c3)S(=O)(=O)C[C@@](CC)(CCCC)[C@H](O)[C@@H]4c3ccccc3)ccc2[C@@H](c2ccccc2)[C@H]1O` [Example 135]: the IC50 worked out at 22000 nM. Same read-out and setting: to `CCCC[C@@]1(CC)CS(=O)(=O)c2cc(OCCOCCOCCOc3ccc4c(c3)S(=O)(=O)C[C@@](CC)(CCCC)[C@@H](O)[C@H]4c3ccccc3)ccc2[C@@H](c2ccccc2)[C@H]1O` [Example 137] belongs 2400 nM; to `CCCCC1(CC)CS(=O)(=O)c2ccc(OC)cc2C(c2ccccc2F)C1O` (stereo not drawn) [Example 278], 3000 nM; to `CCCCC1(CC)CS(=O)(=O)c2ccc(OC)cc2C(c2cccc(F)c2)C1O` (stereo not drawn) [Example 279], 400 nM. As to `CCCCC1(CCCC)CS(=O)(=O)c2ccc(NC(=O)OCc3ccccc3)cc2[C@@H](c2ccccc2)[C@H]1O` [Example 291], the IC50 is 600 nM. Regarding `CCCCC1(CCCC)CS(=O)(=O)c2ccc(NCc3ccccc3)cc2[C@@H](c2ccccc2)[C@H]1O` [Example 293], the IC50 came to 1900 nM.

As to `CCCCC1(CC)CS(=O)(=O)c2ccc(N(C)C)cc2C(c2ccc(OCCOCCOCCOc3ccc(C4c5cc(N(C)C)ccc5S(=O)(=O)CC(CC)(CCCC)C4O)cc3)cc2)C1O` (stereo not drawn) [Example 1211], the IC50 is 280 nM. In the case of `CCCCC1(CCCC)CS(=O)(=O)c2ccc(NC(C)(C)C)cc2C(c2ccc(F)cc2)C1O` (stereo not drawn) [Example 1227], the 50% inhibitory concentration (IC50) is 250 nM. Same read-out and setting: to `CCCCC1(CCCC)CS(=O)(=O)c2ccc(N(C)C)cc2C(c2ccc(OCCOCCOCCOc3ccc(C4c5cc(N(C)C)ccc5S(=O)(=O)CC(CCCC)(CCCC)C4O)cc3)cc2)C1O` (stereo not drawn) [Example 1261] belongs 19 nM; to `CCCCC1(CCCC)CS(=O)(=O)c2ccc(N(C)C)cc2C(c2ccc(OCCCCCCCCCCI)cc2)C1O` (stereo not drawn) [Example 1269], 24 nM. For the compound `CCCCC1(CCCC)CS(=O)(=O)c2ccc(N(C)C)cc2C(c2ccc(OCCCCBr)c(F)c2)C1O` (stereo not drawn) [Example 1270], the half-inhibitory concentration (IC50) was found to be 24 nM. Same read-out and setting: the result for `CCCCC1(CCCC)CS(=O)(=O)c2ccc(N(C)C)cc2C(c2ccc(OCCOCC[S+](CC)CC)c(F)c2)C1O` (stereo not drawn) [Example 1299] reads 12 nM. Same read-out and setting: to `CCCCC1(CCCC)CS(=O)(=O)c2ccc(N(C)C)cc2C(c2ccc(OCCCCCCCCCCOc3ccccc3[N+](C)(C)CC)cc2)C1O` (stereo not drawn) [Example 1351] belongs 440 nM; to `CCCCC1(CCCC)CS(=O)(=O)c2ccc(N(C)C)cc2C(c2cccc(OCCOCCOCC[N+](CC)(CCCc3ccccc3)CCCc3ccccc3)c2)C1O` (stereo not drawn) [Example 1449], 52 nM; to `CCCCC1(CCCC)CS(=O)(=O)c2ccc(N(C)C)cc2C(c2ccccc2)C1O` (stereo not drawn) [Example 1450], 39 nM. Same read-out and setting: to `CCCCC1(CCCC)CS(=O)(=O)c2ccc(N(C)C)cc2C(c2cccc(NCCCS(=O)(=O)O)c2)C1O` (stereo not drawn) [Example 1451] belongs 14 nM.

Still in this assay, the particulars now being: [14C]-taurocholate uptake, read-out: IC50 (In vitro Taurocholate Cell Uptake).
As to `CCCCC1(CC)CS(=O)(=O)c2ccccc2C(=C2CCCCC2)C1O` (stereo not drawn) [Example 10b, 3-Butyl-3-ethyl-4-hydroxy-5-cyclohexylidine-2,3,4,5-tetraydrobenzothiepine-1,1-dioxide], the IC50 is 15000 nM.

The test system of another assay is uptake of [14C]-alanine in H14 cells. Put plainly: In vitro assay of compounds that inhibit uptake of [14C]-alanine (H14 cells). The class given is cell-based, hamster. The settings on record: Mesocricetus auratus.
As for `CCCCC1(CC)CS(=O)(=O)c2ccccc2C(=C2CCCCC2)C1O` (stereo not drawn) [Example 10b, 3-Butyl-3-ethyl-4-hydroxy-5-cyclohexylidine-2,3,4,5-tetraydrobenzothiepine-1,1-dioxide], the inhibition at 100 µM came to 68.6%.

The same assay, now with this note: Mesocricetus auratus; @ 1.0 μM; read-out: Alanine Uptake Percent Inhibition @ μM.
Consider `CCCC[C@]1(CC)CS(=O)(=O)c2ccc(NC(=O)CCCCCCCCCCC(=O)Nc3ccc4c(c3)[C@@H](c3ccccc3)[C@@H](O)[C@](CC)(CCCC)CS4(=O)=O)cc2[C@@H](c2ccccc2)[C@H]1O` [Example 101], for which the inhibition at 1 µM was 0%.

Tested on in the next assay: not listed separately
Put plainly: Rat Alzet minipump model: fecal weight and fecal bile acid concentration (FBA). The class given is in vivo. The settings on record: 20 MPL/DAY, mean (SEM).
As for `CCCC[C@]1(CC)CS(=O)(=O)c2cc(OC)ccc2[C@@H](c2ccccc2)[C@H]1O` [Example 25, (3a,4b,5b) 3-Butyl-3-ethyl-4-hydroxy-8-methoxy-5-phenyl-2,3,4,5-tetrahydrobenzothiepine-1,1-dioxide], the “24 HR. FECAL WT” value is on record as 5.7 (0.4) G.

Tested on in another assay: not listed separately
Put plainly: Cholesterol-fed hamsters: fecal weight and fecal bile acid concentration (FBA). Type of assay: in vivo, hamster. As to conditions: mean (SEM), 4% cholestyramine or 0.2% Cpd. No. 25. As for the experimental part:
Measurement of Fecal Bile Acid Concentration (FBA)
Total fecal output from individually housed hamsters was collected for 24 or 48 hours, dried under a stream of nitrogen, pulverized and weighed. Approximately 0.1 gram was weighed out and extracted into an organic solvent (butanol/water). Following separation and drying, the residue was dissolved in methanol and the amount of bile acid present was measured enzymatically using the 3a-hydroxysteroid steroid dehydrogenase reaction with bile acids to reduce NAD. (Reference: Mashige, F., et al. (1981) Clin. Chem. 27, 1352).
As for `CCCC[C@]1(CC)CS(=O)(=O)c2cc(OC)ccc2[C@@H](c2ccccc2)[C@H]1O` [Example 25, (3a,4b,5b) 3-Butyl-3-ethyl-4-hydroxy-8-methoxy-5-phenyl-2,3,4,5-tetrahydrobenzothiepine-1,1-dioxide], the “24 HR. FECAL Wt (G)” value is reported as 2.4 (0.04) G.
